Laboratory results: ChEMBL document CHEMBL1132675, “New pyrrole derivatives as antimycobacterial agents analogs of BM212” (1999)
In brackets after ≈: the same amount, converted by molar mass. Activity calls are given as the source filed them. The calls are words filed in the database; no cut-off is given here.

Tests used:
[1] = system: Mycobacterium tuberculosis; assay: In vitro antibacterial activity against Mycobacterium tuberculosis 103471; assay type: functional
[2] = system: Mycobacterium gordonae; assay: In vitro antibacterial activity against Mycobacterium gordonae 6427; assay type: functional
[3] = system: Mycobacterium avium; assay: In vitro antibacterial activity against Mycobacterium avium 103317; assay type: functional
[4] = system: Mycolicibacterium smegmatis; assay: In vitro antibacterial activity against Mycobacterium smegmatis 103599; assay type: functional
[5] = system: Candida; assay: Compound was tested for activity against Candida sp; Inactive; assay type: functional, organism-based
[6] = system: Mycobacterium marinum; assay: In vitro antibacterial activity against Mycobacterium marinum 6423; assay type: functional
[7] = system: Candida albicans; assay: Compound was tested for activity against Candida albicans; Inactive; assay type: functional, organism-based
[8] = system: Vero; assay: In vitro cytotoxicity against vero cells; assay type: functional, Chlorocebus sabaeus
[9] = system: Mycobacterium gordonae; assay: In vitro antibacterial activity agains Mycobacterium gordonae 6427; assay type: functional

| SMILES | MIC [1] | MIC [2] | MIC [3] | MIC [4] | MIC [5] | MIC [6] | MIC [7] | MTD50 [8] | MIC [9] |
| --- | --- | --- | --- | --- | --- | --- | --- | --- | --- |
| Cc1c(CN2CCSCC2)cc(-c2ccc(Cl)cc2)n1-c1ccccc1 | 2 µg/mL (≈ 5.22 µM) | > 16 µg/mL | > 16 µg/mL | > 16 µg/mL | inactive | > 16 µg/mL | inactive | 4 µg/mL |  |
| Cc1c(CN2CCN(C)CC2)cc(-c2ccccc2)n1-c1ccc(Cl)cc1 | 4 µg/mL (≈ 10.5 µM) | 8 µg/mL (≈ 21.1 µM) | 16 µg/mL (≈ 42.1 µM) | 8 µg/mL (≈ 21.1 µM) | inactive | 1 µg/mL (≈ 2.63 µM) | inactive | 4 µg/mL |  |
| NNC(=O)c1ccncc1 [ISONIAZID] | 0.25 µg/mL (≈ 1.82 µM) | 32 µg/mL (≈ 233 µM) | 32 µg/mL (≈ 233 µM) | 64 µg/mL (≈ 467 µM) |  | 16 µg/mL (≈ 117 µM) |  | 32 µg/mL |  |
| CO[C@H]1/C=C/O[C@@]2(C)Oc3c(C)c(O)c4c(O)c(c(/C=N/N5CCN(C)CC5)c(O)c4c3C2=O)NC(=O)/C(C)=C\C=C\[C@H](C)[C@H](O)[C@@H](C)[C@@H](O)[C@@H](C)[C@H](OC(C)=O)[C@@H]1C [RIFAMPIN] | 0.3 µg/mL (≈ 0.365 µM) | 0.6 µg/mL (≈ 0.729 µM) | 0.3 µg/mL (≈ 0.365 µM) | 32 µg/mL (≈ 38.9 µM) |  | 0.6 µg/mL (≈ 0.729 µM) |  | 64 µg/mL |  |
| CN[C@@H]1[C@H](O[C@H]2[C@H](O[C@H]3[C@H](O)[C@@H](O)[C@H](N=C(N)N)[C@@H](O)[C@@H]3N=C(N)N)O[C@@H](C)[C@]2(O)C=O)O[C@@H](CO)[C@H](O)[C@H]1O [STREPTOMYCIN] | 0.5 µg/mL (≈ 0.86 µM) | 16 µg/mL (≈ 27.5 µM) | 8 µg/mL (≈ 13.8 µM) | 8 µg/mL (≈ 13.8 µM) |  | 32 µg/mL (≈ 55 µM) |  | >64 µg/mL |  |
| Cc1c(CN2CCN(C)CC2)cc(-c2ccc(Cl)cc2)n1-c1ccccc1 | 4 µg/mL (≈ 10.5 µM) | 16 µg/mL (≈ 42.1 µM) | 16 µg/mL (≈ 42.1 µM) | 8 µg/mL (≈ 21.1 µM) | inactive | 16 µg/mL (≈ 42.1 µM) | inactive | 4 µg/mL |  |
| Cc1c(CN2CCN(C)CC2)cc(-c2ccc(Cl)cc2)n1-c1ccc(Cl)cc1 | 0.7 µg/mL (≈ 1.69 µM) |  | 0.4 µg/mL (≈ 0.965 µM) | 25 µg/mL (≈ 60.3 µM) |  | 100 µg/mL (≈ 241 µM) |  | 4 µg/mL | > 100 µg/mL |
| Cc1c(CN2CCSCC2)cc(-c2ccc(Cl)cc2)n1-c1ccc(Cl)cc1 | 4 µg/mL (≈ 9.58 µM) | > 16 µg/mL | > 16 µg/mL | > 16 µg/mL | inactive | > 16 µg/mL | inactive | 32 µg/mL |  |
| Cc1c(CN2CCSCC2)cc(-c2ccccc2)n1-c1ccc(Cl)cc1 | 2 µg/mL (≈ 5.22 µM) | > 16 µg/mL | 16 µg/mL (≈ 41.8 µM) | 16 µg/mL (≈ 41.8 µM) | inactive | 8 µg/mL (≈ 20.9 µM) | inactive | 8 µg/mL |  |
